The values below come from patent US5057325A, “Method of inhibiting replication of HIV with water-soluble melanins” (Vanderbilt University, priority 1990, dated 1991).

This test has as its system HIV-1 (HTLV-IIIB). The format is cell-based. The following applies: at 1-100 μg/ml; in these assays (HTLV-IIIB, HTLV-IIIRF, HIV-2ROD infection of MT-2 cells). An excerpt: The activity of the melanins for inhibiting replication of HIV can be confirmed by known assays, including particularly the assay described by Montefiori, et al., J. Clin. Microb., 26:231-235, 1988. That assay utilizes human T-cell lymphotropic virus type I-immortalized MT-2 cells as targets for infection. Cytolysis can be quantitated by vital dye uptake of poly-L-lysine-adhered cells as an endpoint for infection. The MT-cell assay has now been accepted as a standard screening test.
Antiviral activities of the synthetic water-soluble melanins derived as described in Example I from L-tyrosine, L-dopa, dopamine, serotonin, norepinephrine, L-dopa/glutathione, and L-dopa/ L-cysteine were measured in 96 well microdilution plates as described (Montefiori, et al., J. Clin. Microbiol. 26:231-235, 1988). Briefly, 2-fold serial dilutions of melanins were made in triplicate in a total of 100 ul growth medium (RPMI-1640 containing 12% heat-inactivated fetal bovine serum and 50 ug gentamicin/ml) per well. MT-2 cells (5×10^4) in 100 ul of growth medium were added to each well and incubated for 10 minutes. […] Viral-induced cytopathic effect (CPE) was quantitated 3 days later by vital dye (neutral red) uptake in remaining viable cells. […]

Regarding L-dopa, the antiviral activity result is “no antiviral activity”. L-tyrosine: the antiviral activity entry is recorded as “no antiviral activity”.
